{"source": "ChEMBL document CHEMBL4616659", "about": "“Talarolactone A, an Isocoumarin Derivative Fused with Dihydrothiophene with Selective Antimigratory Activity from the Endolichenic Fungus Talaromyces sp” (J Nat Prod, 2020)", "key": {"HepG2 [1]": {"test_system": "HepG2", "assay": "Cytotoxicity against human HepG2 cells at 6.25 to 50 ug/ml incubated for 24 hrs by MTT assay", "format": "functional, cell-based"}, "Enterobacter cloacae": {"test_system": "Enterobacter cloacae", "assay": "Antibacterial activity against Enterobacter cloacae ATCC 13047 up to 100 ug/ml incubated for 20 hrs by microbroth dilution method", "format": "functional, organism-based"}, "Staphylococcus aureus [2]": {"test_system": "Staphylococcus aureus", "assay": "Antibacterial activity against Staphylococcus aureus ATCC 29213 up to 100 ug/ml incubated for 20 hrs by microbroth dilution method", "format": "functional, organism-based"}, "[3]": {"assay": "Toxicity in zebrafish AB embryo up to 100 ug/ml after 24 to 88 hrs by inverted microscope", "parameters": "species or system Danio rerio", "conditions": "in vivo"}, "MDA-MB-231": {"test_system": "MDA-MB-231", "assay": "Cytotoxicity against human MDA-MB-231 cells at 6.25 to 50 ug/ml incubated for 24 hrs by MTT assay", "format": "functional, cell-based"}, "[4]": {"assay": "Cytotoxicity against human THLE cells at 6.25 to 50 ug/ml incubated for 24 hrs by MTT assay", "format": "cell-based"}, "[5]": {"assay": "Cytotoxicity against human HBE cells at 6.25 to 50 ug/ml incubated for 24 hrs by MTT assay", "format": "cell-based"}, "HepG2 [6]": {"test_system": "HepG2", "assay": "Antimigratory activity against human HepG2 cells at 25 ug/ml measured up to 60 hrs by microscopic based wound healing assay", "format": "functional, cell-based"}, "Staphylococcus aureus [7]": {"test_system": "Staphylococcus aureus", "assay": "Antibacterial activity against Methicillin-resistant Staphylococcus aureus up to 100 ug/ml incubated for 20 hrs by microbroth dilution method", "format": "functional, organism-based"}, "Acinetobacter baumannii": {"test_system": "Acinetobacter baumannii", "assay": "Antibacterial activity against Acinetobacter baumannii ATCC 19004 up to 100 ug/ml incubated for 20 hrs by microbroth dilution method", "format": "functional, organism-based"}, "MCF7": {"test_system": "MCF7", "assay": "Cytotoxicity against human MCF7 cells at 6.25 to 50 ug/ml incubated for 24 hrs by MTT assay", "format": "functional, cell-based"}, "Klebsiella pneumoniae [8]": {"test_system": "Klebsiella pneumoniae", "assay": "Antibacterial activity against Klebsiella pneumoniae harboring NDM1 mutant up to 100 ug/ml incubated for 20 hrs by microbroth dilution method", "format": "functional, organism-based"}, "Escherichia coli": {"test_system": "Escherichia coli", "assay": "Antibacterial activity against Escherichia coli ATCC 25922 up to 100 ug/ml incubated for 20 hrs by microbroth dilution method", "format": "functional, organism-based"}, "Salmonella typhimurium": {"test_system": "Salmonella typhimurium", "assay": "Antibacterial activity against Salmonella typhimurium ATCC 14028 up to 100 ug/ml incubated for 20 hrs by microbroth dilution method", "format": "functional, organism-based", "conditions": "Salmonella enterica subsp. enterica serovar Typhimurium"}, "A549": {"test_system": "A549", "assay": "Cytotoxicity against human A549 cells at 6.25 to 50 ug/ml incubated for 24 hrs by MTT assay", "format": "functional, cell-based"}, "Klebsiella pneumoniae [9]": {"test_system": "Klebsiella pneumoniae", "assay": "Antibacterial activity against Klebsiella pneumoniae ATCC 43816 up to 100 ug/ml incubated for 20 hrs by microbroth dilution method", "format": "functional, organism-based"}}, "note": "The source made the active and inactive calls. The rule behind the calls is not given here."}
{"smiles": "COc1cc(C(=O)O)c2c3c1C(=O)O[C@@H](C)[C@@H]3CS2", "values": [{"measurement": "Activity", "setting": "HepG2 [1]", "result": "inactive"}, {"measurement": "Activity", "setting": "Enterobacter cloacae", "result": "inactive"}, {"measurement": "Activity", "setting": "Staphylococcus aureus [2]", "result": "inactive"}, {"measurement": "Activity", "setting": "[3]", "result": "Non-Toxic"}, {"measurement": "Activity", "setting": "MDA-MB-231", "result": "inactive"}, {"measurement": "Activity", "setting": "[4]", "result": "Non-Toxic"}, {"measurement": "Activity", "setting": "[5]", "result": "Non-Toxic"}, {"measurement": "Activity", "setting": "HepG2 [6]", "result": "Active"}, {"measurement": "Activity", "setting": "Staphylococcus aureus [7]", "result": "inactive"}, {"measurement": "Activity", "setting": "Acinetobacter baumannii", "result": "inactive"}, {"measurement": "Activity", "setting": "MCF7", "result": "inactive"}, {"measurement": "Activity", "setting": "Klebsiella pneumoniae [8]", "result": "inactive"}, {"measurement": "Activity", "setting": "Escherichia coli", "result": "inactive"}, {"measurement": "Activity", "setting": "Salmonella typhimurium", "result": "inactive"}, {"measurement": "Activity", "setting": "A549", "result": "inactive"}, {"measurement": "Activity", "setting": "Klebsiella pneumoniae [9]", "result": "inactive"}]}
